Source: paper PMC12893914 (Nature, 2025)

Experiments:
[1] = molecular target: T1, MOR (Mus musculus, UniProt P42866); assay type: biochemical; conditions: mouse spinal cord membranes; 100 nM DAMGO pulse loading
[2] = molecular target: T1, MOR; assay type: biochemical; conditions: mouse spinal cord membranes

T1 sequence (P42866 whole entry): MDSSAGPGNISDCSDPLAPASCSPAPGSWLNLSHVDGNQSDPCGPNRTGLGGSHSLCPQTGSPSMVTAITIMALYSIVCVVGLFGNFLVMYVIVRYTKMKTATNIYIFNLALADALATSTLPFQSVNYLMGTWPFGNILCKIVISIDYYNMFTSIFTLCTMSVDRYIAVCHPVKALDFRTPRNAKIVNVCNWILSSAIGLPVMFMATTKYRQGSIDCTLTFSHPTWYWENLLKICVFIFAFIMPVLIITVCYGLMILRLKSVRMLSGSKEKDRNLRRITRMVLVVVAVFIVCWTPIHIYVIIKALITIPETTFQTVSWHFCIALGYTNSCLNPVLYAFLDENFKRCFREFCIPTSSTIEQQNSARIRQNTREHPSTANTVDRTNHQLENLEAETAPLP

## C[C@@H](NC(=O)[C@@H](N)Cc1ccc(O)cc1)C(=O)NCC(=O)N(C)[C@@H](Cc1ccccc1)C(=O)NCCO [DAMGO, [D-Ala2, N-MePhe4, Gly-ol]-enkephalin]
[1]
  efficacy in ^35S-GTPγS release: does not reach this plateau
[2]
  efficacy class in ^35S-GTPγS binding: full agonists
[2]; 10 µM DAMGO
  stimulation of GTPγS binding over baseline: 40%
  stimulation of ^35S-GTPγS binding over baseline: 1.4 ± 0.01 fold
